Experimental data taken from PubChem BioAssay (NCI).
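Method: 48-hour compound exposure of cells in 96-well plates, five concentrations, linear interpolation of endpoints. TGI: concentration producing complete growth inhibition.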

Legend:
Test in all cases: growth of human tumour cells (NCI), 48 h
NCI/ADR-RES ovarian = test system: NCI/ADR-RES ovarian
UO-31 renal = test system: UO-31 renal
SR leukemia = test system: SR leukemia
786-0 renal = test system: 786-0 renal
HCT-116 colon = test system: HCT-116 colon
SK-MEL-2 melanoma = test system: SK-MEL-2 melanoma
HS 578T breast = test system: HS 578T breast
BT-549 breast = test system: BT-549 breast
NCI-H522 lung = test system: NCI-H522 lung
KM12 colon = test system: KM12 colon
MDA-MB-231 breast = test system: MDA-MB-231 breast
SK-MEL-5 melanoma = test system: SK-MEL-5 melanoma
RXF 393 renal = test system: RXF 393 renal
HL-60(TB) leukemia = test system: HL-60(TB) leukemia
SF-295 CNS = test system: SF-295 CNS
HOP-92 NSCLC = test system: HOP-92 NSCLC
T-47D breast = test system: T-47D breast
SF-539 CNS = test system: SF-539 CNS
OVCAR-3 ovarian = test system: OVCAR-3 ovarian
CAKI-1 renal = test system: CAKI-1 renal
RPMI-8226 leukemia = test system: RPMI-8226 leukemia
HCC-2998 colon = test system: HCC-2998 colon
ACHN renal = test system: ACHN renal
MDA-N = test system: MDA-N
SW-620 colon = test system: SW-620 colon
EKVX NSCLC = test system: EKVX NSCLC
OVCAR-4 ovarian = test system: OVCAR-4 ovarian
MCF7 breast = test system: MCF7 breast
IGROV1 ovarian = test system: IGROV1 ovarian
MOLT-4 leukemia = test system: MOLT-4 leukemia
NCI-H460 lung = test system: NCI-H460 lung
OVCAR-8 ovarian = test system: OVCAR-8 ovarian
A549 NSCLC = test system: A549 NSCLC
SNB-19 CNS = test system: SNB-19 CNS
UACC-62 melanoma = test system: UACC-62 melanoma
MALME-3M melanoma = test system: MALME-3M melanoma
K-562 leukemia = test system: K-562 leukemia
DU-145 prostate = test system: DU-145 prostate
U251 CNS = test system: U251 CNS
SF-268 CNS = test system: SF-268 CNS
M14 melanoma = test system: M14 melanoma
NCI-H23 lung = test system: NCI-H23 lung
SK-OV-3 ovarian = test system: SK-OV-3 ovarian
UACC-257 melanoma = test system: UACC-257 melanoma
LOX IMVI melanoma = test system: LOX IMVI melanoma
PC-3 prostate = test system: PC-3 prostate
NCI-H226 lung = test system: NCI-H226 lung
HOP-62 NSCLC = test system: HOP-62 NSCLC
OVCAR-5 ovarian = test system: OVCAR-5 ovarian
A498 renal = test system: A498 renal
TK-10 renal = test system: TK-10 renal
CCRF-CEM leukemia = test system: CCRF-CEM leukemia
COLO 205 colon = test system: COLO 205 colon
MDA-MB-435 = test system: MDA-MB-435
HCT-15 colon = test system: HCT-15 colon
HT29 colon = test system: HT29 colon
SN12C renal = test system: SN12C renal
SK-MEL-28 melanoma = test system: SK-MEL-28 melanoma

In the case of Cc1nnc2sc(-c3ccc([N+](=O)[O-])o3)nn12, the TGI (NCI/ADR-RES ovarian) is reported as 39 µM, the TGI (UO-31 renal) is reported as 32.6 µM and the TGI (SR leukemia) is reported as 59.6 µM. For the same compound, the TGI (786-0 renal) was 22 µM, the TGI (HCT-116 colon) was 20.7 µM and the TGI (SK-MEL-2 melanoma) was 24.2 µM. For the same compound, the TGI (HS 578T breast) was greater than 100 µM, the TGI (BT-549 breast) was 22.5 µM and the TGI (NCI-H522 lung) was 14.3 µM. The TGI (KM12 colon) was 33.5 µM, the TGI (MDA-MB-231 breast) was 29.2 µM and the TGI (SK-MEL-5 melanoma) was 24.4 µM. For the same compound, the TGI (RXF 393 renal) was 25.9 µM, the TGI (HL-60(TB) leukemia) was 8.58 µM and the TGI (SF-295 CNS) was 31 µM. The TGI (HOP-92 NSCLC) was 35.2 µM, the TGI (T-47D breast) was 62.7 µM and the TGI (SF-539 CNS) was 18.2 µM. It also gave a TGI (OVCAR-3 ovarian) of 25.4 µM, a TGI (CAKI-1 renal) of 22.3 µM and a TGI (RPMI-8226 leukemia) of 34.7 µM. It also gave a TGI (HCC-2998 colon) of 25 µM, a TGI (ACHN renal) of 23.2 µM and a TGI (MDA-N) of 19.4 µM. The TGI (SW-620 colon) was 23.2 µM, the TGI (EKVX NSCLC) was 37.7 µM and the TGI (OVCAR-4 ovarian) was 30.7 µM. For the same compound, the TGI (MCF7 breast) was 26.5 µM, the TGI (IGROV1 ovarian) was 29.1 µM and the TGI (MOLT-4 leukemia) was 13.5 µM. For the same compound, the TGI (NCI-H460 lung) was 49.4 µM, the TGI (OVCAR-8 ovarian) was 27.5 µM and the TGI (A549 NSCLC) was greater than 100 µM. It also gave a TGI (SNB-19 CNS) of 35.3 µM, a TGI (UACC-62 melanoma) of 22.1 µM and a TGI (MALME-3M melanoma) of 14.3 µM. The TGI (K-562 leukemia) was 26.1 µM, the TGI (DU-145 prostate) was 29.8 µM and the TGI (U251 CNS) was 27.9 µM. It also gave a TGI (SF-268 CNS) of 27 µM, a TGI (M14 melanoma) of 21.9 µM and a TGI (NCI-H23 lung) of 34.4 µM. For the same compound, the TGI (SK-OV-3 ovarian) was 32.7 µM, the TGI (UACC-257 melanoma) was 26.8 µM and the TGI (LOX IMVI melanoma) was 16.1 µM. For the same compound, the TGI (PC-3 prostate) was 27.9 µM, the TGI (NCI-H226 lung) was 34.5 µM and the TGI (HOP-62 NSCLC) was 28.5 µM. The TGI (OVCAR-5 ovarian) was 36.7 µM, the TGI (A498 renal) was greater than 100 µM and the TGI (TK-10 renal) was 28.6 µM. For the same compound, the TGI (CCRF-CEM leukemia) was greater than 100 µM, the TGI (COLO 205 colon) was 27.5 µM and the TGI (MDA-MB-435) was 17.5 µM. It also gave a TGI (HCT-15 colon) of 18.2 µM, a TGI (HT29 colon) of 34.7 µM and a TGI (SN12C renal) of 29.5 µM.
O=C1NC(O)CCN1C1CC(O)C(CO)O1 (stereo not drawn) was tested, and the TGI (NCI/ADR-RES ovarian) was greater than 100 µM, the TGI (UO-31 renal) was greater than 100 µM and the TGI (SR leukemia) was greater than 100 µM. It also gave a TGI (786-0 renal) greater than 100 µM, a TGI (HCT-116 colon) greater than 100 µM and a TGI (SK-MEL-2 melanoma) greater than 100 µM. It also gave a TGI (HS 578T breast) greater than 100 µM, a TGI (BT-549 breast) greater than 100 µM and a TGI (NCI-H522 lung) greater than 100 µM. For the same compound, the TGI (KM12 colon) was greater than 100 µM, the TGI (MDA-MB-231 breast) was greater than 100 µM and the TGI (SK-MEL-5 melanoma) was greater than 100 µM. The TGI (RXF 393 renal) was greater than 100 µM, the TGI (HL-60(TB) leukemia) was greater than 100 µM and the TGI (SF-295 CNS) was greater than 100 µM. For the same compound, the TGI (HOP-92 NSCLC) was greater than 100 µM, the TGI (T-47D breast) was greater than 100 µM and the TGI (SF-539 CNS) was greater than 100 µM. For the same compound, the TGI (OVCAR-3 ovarian) was greater than 100 µM, the TGI (CAKI-1 renal) was greater than 100 µM and the TGI (RPMI-8226 leukemia) was greater than 100 µM. For the same compound, the TGI (HCC-2998 colon) was greater than 100 µM, the TGI (ACHN renal) was greater than 100 µM and the TGI (MDA-N) was greater than 100 µM. For the same compound, the TGI (SW-620 colon) was greater than 100 µM, the TGI (EKVX NSCLC) was greater than 100 µM and the TGI (MCF7 breast) was greater than 100 µM. The TGI (IGROV1 ovarian) was greater than 100 µM, the TGI (MOLT-4 leukemia) was greater than 100 µM and the TGI (NCI-H460 lung) was greater than 100 µM. The TGI (OVCAR-8 ovarian) was greater than 100 µM, the TGI (A549 NSCLC) was greater than 100 µM and the TGI (SNB-19 CNS) was greater than 100 µM. For the same compound, the TGI (UACC-62 melanoma) was greater than 100 µM, the TGI (MALME-3M melanoma) was greater than 100 µM and the TGI (K-562 leukemia) was greater than 100 µM. The TGI (DU-145 prostate) was greater than 100 µM, the TGI (U251 CNS) was greater than 100 µM and the TGI (SF-268 CNS) was greater than 100 µM. For the same compound, the TGI (M14 melanoma) was greater than 100 µM, the TGI (NCI-H23 lung) was greater than 100 µM and the TGI (SK-MEL-28 melanoma) was greater than 100 µM. The TGI (SK-OV-3 ovarian) was greater than 100 µM, the TGI (UACC-257 melanoma) was greater than 100 µM and the TGI (LOX IMVI melanoma) was greater than 100 µM. It also gave a TGI (PC-3 prostate) greater than 100 µM, a TGI (NCI-H226 lung) greater than 100 µM and a TGI (HOP-62 NSCLC) greater than 100 µM. It also gave a TGI (OVCAR-5 ovarian) greater than 100 µM, a TGI (A498 renal) greater than 100 µM and a TGI (TK-10 renal) greater than 100 µM. For the same compound, the TGI (CCRF-CEM leukemia) was greater than 100 µM, the TGI (COLO 205 colon) was greater than 100 µM and the TGI (MDA-MB-435) was greater than 100 µM. It also gave a TGI (HCT-15 colon) greater than 100 µM and a TGI (SN12C renal) greater than 100 µM.
